Results as given in the Bradley open melting point set (2014).
Where “and” joins values, the source holds several entries; their conditions need not be identical. Equal values may be shown once.

SMILES | melting point
O=[N+]([O-])c1ccc(I)cc1 [1-Iodo-4-nitrobenzene] | 176 °C
CC(=O)Nc1ccc(/N=N/c2ccc(/N=N/c3ccc(/N=N/c4ccc(NC(C)=O)cc4)cc3)cc2)cc1 | 247 °C
CCCCc1ccccc1 [N-Butylbenzene] | -87.9 °C
C=CCSc1ncccc1C(=O)O [2-(allylthio)nicotinic acid] | 147 °C
COC(=O)c1ccc(OC)cc1 [methyl 4-methoxybenzoate] | 50 °C
CC(=O)Nc1ccc(C=O)cc1 [4-acetamidobenzaldehyde] | 160 °C
COc1c(B(O)O)cccc1C(=O)O [3-(Dihydroxyboryl)-2-methoxybenzoic acid] | 157 °C
O=C(O)CCCCCCC[C@H](O)[C@H](O)CCCCCCO [erythro-aleuritic acid] | 99 °C
N#CCc1ccc(N)cc1 [4-aminophenylacetonitrile] | 44 °C
O=C1C=CC(=O)c2ccccc21 [1,4-Naphthoquinone] | 126 °C
COc1cc(OC)c2c(c1)C(O)OC2=O (configuration not stated) [3-hydroxy-5,7-dimethoxy-2-benzofuran-1(3H)-one] | 185 °C
Nc1c(Cl)cccc1Cl [2,6-dichloroaniline] | 39 °C
C/C=C/CC [trans-2-pentene] | -136 °C
C[C@]12CC[C@H]3[C@@H](CCC4=CC(=O)CC[C@@]43C)[C@@H]1CC[C@@H]2O [testosterone] | 154 °C
C1CCc2nnnn2CC1 [1,5-pentamethylene-1h-tetrazole] | 60 °C
C=C(C)Cn1c(N)cc(=O)n(C)c1=O [Uracil, 6-amino-3-methyl-1- (2-methylallyl)-] | 175 °C
CCC(=O)C1(c2cccc(O)c2)CCN(C)CC1 [ketobemidone] | 156 °C
Cc1ccc(C)c(C)c1 [1,2,4-trimethylbenzene] | -44 °C
CNC=O [N-methylformamide] | -4 °C
Nc1cccc(F)c1C(=O)O [2-amino-6-fluorobenzoic acid] | 166 °C
O=C(N[C@H](CO)[C@H](O)c1ccc([N+](=O)[O-])cc1)C(Cl)Cl [chloramphenicol] | 151 °C
CC1=C(CC(=O)O)c2cc(F)ccc2/C1=C\c1ccc(S(C)=O)cc1 (configuration not stated) [sulindac] | 184 °C
O=C1c2ccccc2C(C2=CCCCC2)N1Cc1ccccc1 (configuration not stated) [2-Benzyl-3-cyclohexenylisoindolin-1-one] | 110 °C
NCC[C@H](O)C(=O)N[C@@H]1C[C@H](N)[C@@H](O[C@H]2O[C@H](CN)[C@@H](O)[C@H](O)[C@H]2O)[C@H](O)[C@H]1O[C@H]1O[C@H](CO)[C@@H](O)[C@H](N)[C@H]1O [Amikacin] | 204 °C
N=C(N)Nc1nc(CSCCC(=N)NS(N)(=O)=O)cs1 [famotidine] | 164 °C

SMILES | melting point
NNC(=O)CC(=O)NN [malonic acid dihydrazide] | 154 °C
CCC(C)Cl (configuration not stated) [2-chlorobutane] | -131 °C
Cc1c(C2(c3cc(C(C)C)c(O)c(Br)c3C)OS(=O)(=O)c3ccccc32)cc(C(C)C)c(O)c1Br [bromothymol blue] | 201 °C
O=C1c2ccccc2-c2ccccc21 [9-fluorenone] | 83 °C
COc1cc(Br)cc(OC)c1OC [5-bromo-1,2,3-trimethoxybenzene] | 79 °C
O=C(O)/C(=C/c1ccccc1)c1ccc([N+](=O)[O-])cc1 [(E)-2-(4-nitrophenyl)-3-phenylpropenoic acid] | 228 °C
NC(N)=S [thiourea] | 177 °C
C=CCCCCCCCCC [1-undecene] | -49 °C
CCCCCCCCCCC(O)CCCCCCCCCC [11-heneicosanol] | 72 °C
Cc1cn([C@H]2C[C@H](N=[N+]=[N-])[C@@H](CO)O2)c(=O)[nH]c1=O [Zidovudine] | 109 °C
CC(=O)Nc1ccc(N)cn1 [2-acetamido-5-aminopyridine] | 149 °C
CNC(=O)NC [N,N'-dimethylurea] | 102 °C
O[C@@H]1CC[C@H](C[C@H]1OC)/C=C(C)[C@H]2OC(=O)[C@@H]4CCCCN4C(=O)C(=O)[C@]3(O)O[C@H]([C@H](C[C@@H](C)CC(C)=C[C@@H](CC=C)C(=O)C[C@H](O)[C@H]2C)OC)[C@H](C[C@H]3C)OC [Tacrolimus] | 126 °C
Cc1c2ccccc2cc2ccccc12 [9-methylanthracene] | 78 °C and 80 °C
CC(CC(=O)O)CC(C)(C)C (configuration not stated) [3,5,5-trimethylhexanoic acid] | -70 °C
CCCCCCOCCO [2-(n-hexyloxy)ethanol] | -42 °C
CC(CO)(CO)CO [1,1,1-tris(hydroxymethyl)ethane] | 190 °C
CCCCCc1ccc(-c2ccc(C#N)cc2)cc1 [4-cyano-4'-n-pentylbiphenyl] | 23 °C
CC(=O)OC1CCCC2=CC(=O)CCC21C (configuration not stated) | 90 °C
O=C(CCl)N1CCOCC1 [4-(chloroacetyl)morpholine] | 29 °C
CC(Oc1ccc(Cl)cc1Cl)C(=O)O (configuration not stated) [2-(2,4-dichlorophenoxy)propionic acid] | 114 °C
C1COCO1 [1,3-dioxolane] | -95 °C
c1ccc(C2CCCCC2)cc1 [cyclohexylbenzene] | 6 °C
CC(=O)c1cccc(C#N)c1 [3-acetylbenzonitrile] | 99 °C
C[C@H](NC(=O)OC(C)(C)C)C(=O)O [N-boc-L-alanine] | 82 °C

SMILES | melting point
O=C(NNc1ccccc1)NNc1ccccc1 [N'',N'''-Diphenylcarbonohydrazide] | 173 °C
Cc1[nH]c(C)c(C)c1C [2,3,4,5-tetramethylpyrrole] | 105 °C
O=C(CCl)OC(=O)CCl [chloroacetic anhydride] | 58 °C
N#Cc1ccc(Oc2ccnc3ccccc23)cc1C#N [4-(Quinolin-4-yloxy)phthalonitrile] | 175 °C
NC(=O)c1cccc2ccccc12 [naphthalene-1-carboxamide] | 208 °C
Cc1ccc2sccc2c1 [5-methylbenzo[b]thiophene] | 34 °C
CC(C)(C)OC(=O)N1CCc2ccccc21 [1-boc-indoline] | 47 °C
C[C@]12CC[C@@H]3c4ccc(O)cc4CC[C@H]3[C@@H]1CCC2=O [estrone] | 255 °C
CC(C)=CCC/C(C)=C/CO [geraniol] | -15 °C
COC(=O)CCCCCCCCC(=O)OC [dimethyl_sebacate] | 30 °C
O=[N+]([O-])/C=C/c1c(Cl)cccc1Cl [2,6-dichloro-beta-nitrostyrene] | 65 °C
CCCCCCCCCCCCCCCCCCCCCCCCCC [N-hexacosane] | 57 °C
CC1=CCC(C(C)(C)O)CC1 (stereo not drawn) [alpha-terpineol] | 32 °C
COc1ccc2c(c1)no[n+]2[O-] [5-methoxybenzofuroxan] | 117 °C
CC(C)CCCC(C)C1CCC2C3CC(O)C4=CC(=O)CCC4(C)C3CCC12C (configuration not stated) [6-hydroxycholest-4-en-3-one] | 155 °C
CC(=O)OC1CCC2(C)C(=CCC3C2CCC2(C)C3CCC2(O)C#Cc2ccccc2)C1 (configuration not stated) [17-hydroxy-21-phenylpregn-5-en-20-yn-3-yl acetate] | 148 °C
C1CCCCC1 [Cyclohexane] | 7 °C
COc1ccc(N=C=S)cc1 [4-methoxyphenyl isothiocyanate] | 19 °C
Nc1nc(=O)c2nc(CNc3ccc(C(=O)N[C@@H](CCC(=O)O)C(=O)O)cc3)cnc2[nH]1 [Folic Acid] | 250 °C
NC(=O)NCCC[C@H](N)C(=O)O [L-Citrulline] | 214 °C
CC(=O)c1ccc(F)c(Cl)c1 [3'-chloro-4'-fluoroacetophenone] | 39 °C
CC(C)c1cc(C(C)C)cc(C(C)C)c1 [1,3,5-triisopropylbenzene] | -7 °C
O=C1NC(=O)c2c1cccc2[N+](=O)[O-] [3-nitrophthalimide] | 219 °C
OB(O)c1ccc(Br)cc1F [4-bromo-2-fluorobenzeneboronic acid] | 240 °C
NCCCCCC(=O)O [6-aminocaproic acid] | 205 °C

SMILES | melting point
COC(=O)c1ccc(Br)cc1 [methyl_4-bromobenzoate] | 81 °C
CCCCOc1ccc(NC(=O)C(F)(F)C(F)(F)C(F)(F)C(F)(F)C(F)(F)C(F)(F)C(F)(F)C(F)(F)F)cc1 | 137 °C
CC(C)CCCCCCCOC(=O)c1ccccc1C(=O)OCCCCCCCC(C)C [Bis(8-methylnonyl) phthalate] | -50 °C
Cc1c(N(C)C)c(=O)n(-c2ccccc2)n1C [aminopyrine] | 108 °C
Cc1ccc(Cl)cc1Cl [2,4-dichlorotoluene] | -13 °C
COc1ccc(C(C)=O)cc1 [4'-methoxyacetophenone] | 38 °C
COC(=O)c1cccc([N+](=O)[O-])c1 [methyl 3-nitrobenzoate] | 79 °C
CCn1cc(C(=O)O)c(=O)c2ccc(C)nc21 | 230 °C
O=Cc1ccc(C(=O)O)cc1 [p-formyl_benzoic_acid] | 247 °C
CC(=O)N(C1=NC(=O)/C(=C/c2cc(C)n(-c3ccc(C(F)(F)F)cc3)c2C)S1)c1ccccc1 [OSM-S-45] | 310 °C
CC(C)=O [acetone] | -94 °C
CC(=O)Nc1ccc(Br)c(C(F)(F)F)c1 [4'-bromo-3'-(trifluoromethyl)acetanilide] | 118 °C
CCC(C(=O)O)c1ccccc1 (configuration not stated) [2-phenylbutyric acid] | 38 °C
CCn1cc(C(=O)O)c(=O)c2ccc(C)nc21 [Nalidixic Acid] | 230 °C
C#CCCCCC [1-heptyne] | -81 °C
Cc1cc(/C=C2\S/C(=N\c3ccccc3)N(C3CCCC3)C2=O)c(C)n1-c1ccc(C(F)(F)F)cc1 [OSM-S-54] | 71.5 °C
CC(=O)OC1CCC2(C)C3CCC4=C(CCC4(C)C(C)OC(C)=O)C3CCC2(C)C1 (configuration not stated) | 118 °C
Sc1ccccn1 [Pyridine-2-thiol] | 129 °C
CCC(C)(C)Cl [2-Chloro-2-methylbutane] | -73 °C
OCCCCCCCCCO [1,9-nonanediol] | 47 °C
CCCCOC(=O)c1ccc(O)cc1 [butylparaben] | 68.5 °C
Clc1ccc(-c2ccc(Cl)cc2)cc1 [PCB-15] | 149 °C
